Our source for the IC50 and EC50 values is publication PMC5740381 (Antimicrobial Agents and Chemotherapy, 2017).

In one assay the target is T1, Cathepsin B (Homo sapiens, UniProt P07858).
T1 construct: purchased Sigma-Aldrich
Kind of assay: Human protease biochemical assay. Conditions: read-out: Mean IC50 ± SD. Here is the method: (§1) […]; catalog number M9771; Sigma-Aldrich), and 0.05 U/ml elastase (excitation wavelength = 370 nm, emission wavelength = 460 nm); (ii) for chymase, 0.4 M Tris, pH 8.0, 1.8 M NaCl, 9% dimethyl sulfoxide, 0.4 mM substrate (Suc-AAF-AMC; catalog number S8758; Sigma-Aldrich), and 0.063 U/ml chymase (excitation wavelength = 370 nm, emission wavelength = 460 nm); (iii) for cathepsin B, 50 mM MES (morpholineethanesulfonic acid), pH 6.0, 50 mM NaCl, 2 mM EDTA, 0.1% Triton X-100, 0.4 mM substrate (Z-RR-AMC; catalog number C5429; Sigma-Aldrich), and 1.7 μg/ml cathepsin B (excitation wavelength = 370 nm, emission wavelength = 460 nm); (iv and v) for chymotrypsin types II and VII, 50 mM Tris, pH 8, 10 mM CaCl2, 0.1% Triton X-100, 0.25 mM substrate (Suc-AAF-AMC; catalog number S8758; Sigma-Aldrich), and 0.5 nM chymotrypsin type II or type VII (excitation wavelength = 370 nm, emission wavelength = 460 nm); (vi) for kallikrein, 50 mM Tris, pH 7.4, 0.5 mM EDTA, 0.05% Tween 20, 150 mM NaCl, 0.35 mM substrate (H-Pro-Phe-Arg-AMC; catalog number I-1295; Bachem), and 2 nM kallikrein (excitation wavelength = 355 nm, emission wavelength = 460 nm); and (vii) for urokinase, 50 mM Tris, pH 7.4, 0.15 M NaCl, 0.5% Pluronic F-68, 0.2 mM substrate (pyro-Glu Arg-p-nitroanilide-HCl; catalog number S-2444; Diapharma), and 3 nM urokinase (absorbance at 405 nm).

For the next assay, the target named is T2, Chymase (Homo sapiens, UniProt P23946).
T2 construct: purchased Sigma-Aldrich
T2 sequence (P23946 22-247): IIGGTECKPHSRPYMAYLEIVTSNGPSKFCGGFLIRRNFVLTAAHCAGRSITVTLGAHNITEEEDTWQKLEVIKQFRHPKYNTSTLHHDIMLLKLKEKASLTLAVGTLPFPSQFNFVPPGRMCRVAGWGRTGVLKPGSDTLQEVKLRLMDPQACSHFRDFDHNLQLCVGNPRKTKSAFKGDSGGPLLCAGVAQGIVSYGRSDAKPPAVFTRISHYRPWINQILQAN
The assay is described as follows: Human protease biochemical assay. Conditions: read-out: Mean IC50 ± SD. The method, then:
as §1

A further assay concerns the target T3, Chymotrypsin type II (Bos taurus, UniProt P00766).
T3 construct: purchased Sigma-Aldrich
Kind of assay: Human protease biochemical assay. The settings on record: read-out: Mean IC50 ± SD. Here is the method: as §1

A further assay concerns the target T4, Chymotrypsin type VII (Bos taurus, UniProt P00766).
T4 construct: purchased Sigma-Aldrich
Kind of assay: Human protease biochemical assay. Conditions: read-out: Mean IC50 ± SD. Here is the method:
as §1

The next assay has as its target T5, Elastase (Homo sapiens, UniProt P08246).
T5 construct: purchased Sigma-Aldrich
The assay is described as follows: Human protease biochemical assay. Conditions: read-out: Mean IC50 ± SD. The method, then:
as §1

The next assay concerns the target T6, Urokinase (Homo sapiens, UniProt P00749).
T6 construct: purchased Sigma-Aldrich
Kind of assay: Human protease biochemical assay. Conditions: read-out: Mean IC50 ± SD. The method, then:
as §1

For assay [1], the system named is HCV replicons with genotype 1a patient proteases. Kind of assay: Transient replicon assay with proteases from HCV-infected patients. The format is cell-based. The settings on record: Hepatitis C virus. The source says:
(§2) […]. Each of the NS3 gene sequences from genotypes 1, 2, and 4, with the exception of two genotype 2b sequences, was derived from serum or plasma from an HCV-infected patient by bulk PCR amplification, producing a population of sequences representing the viral quasispecies. Two genotype 2b sequences were synthesized based on the consensus sequences of the respective samples. One genotype 3a sequence was synthesized based on a consensus sequence from the sequences available in the Los Alamos HCV sequence database, and another genotype 3a sequence was a clonal sequence derived from a patient sample. The genotype 5a sequence (strain SA13) was synthesized based on the published sequence of the HCV isolate ([48]).
(§3) Transient replicons containing NS3 from clinical samples from HCV genotype 1a- and 1b-infected patients were described previously ([28]). For the transient replicons containing NS3/4A from samples from genotype 3a-infected patients, the first 251 amino acids of NS3 and the region encoding NS4A amino acids 21 to 32 (numbered relative to the NS4A coding region) from these HCV samples were cloned to replace the corresponding residues from the backbone of a genotype 1b Con1 shuttle vector. A genotype 1b Con1 transient replicon shuttle vector was also used to clone the region encoding the first 251 amino acids of NS3 from samples from genotype 4a- or 4d-infected patients in place of the corresponding region from HCV genotype 1b Con1.
(§4) For the analysis of NS3 sequences from patients, we defined a polymorphism to be an amino acid difference in the sequence of a baseline sample relative to the sequence of the appropriate HCV subtype reference sequence: genotype 1a H77 (GenBank accession number NC_004102), genotype 1b Con1 (GenBank accession number AJ238799), genotype 2a JFH-1 (GenBank accession number AB047639), genotype 2b HC-J8 (GenBank accession number D10988), genotype 3a S52 (GenBank accession number GU814263), genotype 4a ED43 (GenBank accession number GU814265), genotype 4d QC382 (GenBank accession number FJ462437), and genotype 5a SA13 (GenBank accession number AF064490). Polymorphisms were assessed at the following NS3 amino acid positions that are associated with resistance to the HCV PI class: 36, 43, 54, 55, 56, 80, 122, 155, 156, and 168. All DNA sequencing was performed by the Sanger sequencing method.
(Replicon systems follow genome replication, usually without infectious particles.)

In assay [2] the test system is HCV replicons with genotype 1b patient proteases. The assay is described as above. The format is cell-based. Conditions: Hepatitis C virus, subtype 1b, no polymorphism, 9 samples.
Description: as §2, §3, §4

For assay [3], the system named is HCV replicons with genotype 3a patient proteases. The assay is described as above. The format is cell-based. The settings on record: Hepatitis C virus, subtype 3a, no polymorphism, 2 samples.
Description: as §2, §3, §4

For assay [4], the system named is HCV replicons with genotype 4d patient proteases. The description is as above. Type of assay: cell-based. The settings on record: Hepatitis C virus, 96 h, subtype 4d, no polymorphism, 3 samples.
Description: as §2, §3, §4

The test system of assay [5] is HCV subgenomic stable replicon GT1b Con1. The format is cell-based, Hepatitis C virus. Conditions: 0% human plasma, read-out: Mean EC50 ± SD. The source says:
Five of these nine cell lines have been described previously, including those transfected with genotypes 1a H77, 1b Con1, 3a, 4a, and 6a ([28]). […] The genotype 2b and 6e NS3 sequences were each synthetically constructed based on a consensus sequence derived from the alignment of 15 genotype 2b and 4 genotype 6e sequences, respectively. All replicon constructs were bicistronic subgenomic replicons similar to those described by Bartenschlager and coworkers, and the replicon cell lines were generated by introducing these constructs into cells of an Huh-7 human hepatoma-derived cell line ([50]). The inhibitory effect of the PIs on HCV replication in replicon cells was determined in Dulbecco's modified Eagle medium containing 5% fetal bovine serum with or without 40% human plasma (Bioreclamation, Westbury, NY). The EC50s were determined using nonlinear regression curve fitting as described previously ([33]).

SMILES strings stand for the structures. Read-outs that look alike come from different tables or passages of the source. Bounds are passed on as bounds.

T5 sequence (P08246 30-247 limits assumed): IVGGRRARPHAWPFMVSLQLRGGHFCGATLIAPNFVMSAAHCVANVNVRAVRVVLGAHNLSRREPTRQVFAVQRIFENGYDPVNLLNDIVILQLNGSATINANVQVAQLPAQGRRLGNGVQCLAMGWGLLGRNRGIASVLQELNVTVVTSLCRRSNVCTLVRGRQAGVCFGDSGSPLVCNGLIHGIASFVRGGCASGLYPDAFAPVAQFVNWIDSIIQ

Regarding `CC(C)(C)[C@@H]1NC(=O)O[C@@H]2CCC[C@H]2OC/C=C/C(F)(F)c2nc3ccccc3nc2O[C@@H]2C[C@@H](C(=O)N[C@]3(C(=O)NS(=O)(=O)C4(C)CC4)C[C@H]3C(F)F)N(C2)C1=O` [Glecaprevir, (3aR,7S,10S,12R,21E,24aR)-7-tert-butyl-N-[(1R,2R)-2-(difluoromethyl)-1-{[(1-methylcyclopropyl)sulfonyl]carbamoyl}cyclopropyl]-20,20-difluoro-5,8-dioxo-2,3,3a,5,6,7,8,11,12,20,23,24a-dodecahydro-1H,10H-9,12-methanocyclopenta[18,19][1,10,17,3,6]trioxadiazacyclononadecino[11,12-b]quinoxaline-10-carboxamide], the IC50 at Cathepsin B, on Chymase, at Chymotrypsin type II, at Chymotrypsin type VII, on Elastase and on Urokinase was greater than 200000 nM throughout. In addition, the EC50 (usually the concentration giving half of the maximal effect) in [1] (all genotype 1a clinical samples, read-out: Median EC50) is 0.08 nM; in assay [1] (subtype 1a, Q80K, 5 samples, read-out: EC50 Median) it was 0.09 nM; in [1] (subtype 1a, Q80K, 5 samples, read-out: EC50 Range), 0.07 to 0.1 nM; in assay [1] (subtype 1a, Q80N, 1 sample, read-out: EC50 Median) it was 0.09 nM; in assay [1] (subtype 1a, no NS3 polymorphism, 5 samples, read-out: EC50 Median), 0.06 nM; in [1] (subtype 1a, no NS3 polymorphism, 5 samples, read-out: EC50 Range), 0.05 to 0.12 nM. The concentration giving a half-maximal response (EC50) is 0.29 nM in assay [2] (read-out: EC50 Median); 0.2 to 0.68 nM in [2] (read-out: EC50 Range); 2.3 nM in assay [3] (read-out: EC50 Median); 0.71 to 3.8 nM in [3] (read-out: EC50 Range); 0.17 nM in assay [4] (read-out: EC50 Median); 0.13 to 0.25 nM in assay [4] (read-out: EC50 Range).
As to `C=C[C@@H]1C[C@]1(NC(=O)[C@@H]1C[C@@H]2CN1C(=O)[C@H](C(C)(C)C)NC(=O)O[C@@H]1C[C@H]1CCCCCc1nc3ccc(OC)cc3nc1O2)C(=O)NS(=O)(=O)C1CC1` [Grazoprevir], the EC50 in assay [5] was 1 ± 0.17 nM.
